Data: patent US11833225B2, “Methods and compositions for efficient gene deletion” (CRISPR Therapeutics AG, priority 2018, dated 2023)
Several values for one entry are separate records, joined by “and”; a condition that tells them apart may be missing. Equal entries are not always repeated.

Assays:
Format in all cases: cell-based, human
CCR5 gene = assay: CCR5 deletion frequency by ddPCR in edited CD34+ cells
Excerpt: The C-C chemokine receptor type 5 (CCR5) is a key player in HIV infection due to its major involvement in the infection process. A limited number of people harbor a genomic 32-bp deletion in the CCR5 gene ([…]), leading to expression of a truncated gene product that provides resistance to HIV-1 infection in individuals homozygous for this mutation. Dual gRNAs were designed to target this region of the CCR5 gene. FIG. 8 diagrams the CCR5 gene and the location of TB48 gRNA and TB7 gRNA target sites (bordering a 735 bp deletion).
Human peripheral blood CD34+ cells were cultured and as electroporated with Cas9 and the two gRNAs essentially as described above in Example 1. Nu7441 was delivered to the cells (0, 1.25, 2.5, 5 μM) immediately after electroporation. Deletion efficiency was determined by ddPCR two days after electroporation.
Additional gRNAs were designed to delete larger segments from CCR5, i.e., TB74 and TB 25 for a 5700 bp deletion, and TB48 and TB25 for a 2672 bp deletion (FIG. 10). The gRNAs (and Cas9) were introduced at two dose levels (0.75 or 1.5 μg each) and cells were exposed to 0, 2.5, or 5 μM Nu7441.
Another DNA-PK inhibitor, M3814, was tested to determine whether deletions were increased in its presence. Populations of newly electroporated cells were exposed to four concentrations of M3814 ranging from 0.078 μM to 0.625 μM.

HPFH5 [1] = assay: HPFH5 deletion frequency by droplet digital PCR (ddPCR) in edited CD34+ hHSPCs; conditions: increased from 30% without inhibitor, dose-dependent, 0.3125-5 μM; Cas9 + dual gRNAs; 48 hours post electroporation
Procedure: Mobilized human peripheral blood (mPB) CD34+ cells from three independent human donors were cultured in serum free CellGro® media including 100 ng/ml recombinant human stem cell factor (SCF), 100 ng/ml recombinant human Flt 3-Ligand (FLT3L), and 100 ng/ml Thrombopoietin (TPO). 100,000 cells per condition were electroporated using Lonza Amaxa 4D electroporator without any CRISPR/Cas9 editing components as a negative control (mock electroporation sample), with HPFH5-1+HPFH5-D sgRNAs and Cas9 protein (1+D), or with HPFH5-5+HPFH5-D sgRNAs and Cas9 protein (5+D). The recombinant S. pyogenes Cas9 protein was flanked by two SV40 nuclear localization sequences (NLSs). These experiments were performed using a ribonucleoprotein (RNP) 1:1 weight ratio of gRNA to Cas9.
The deletion frequency was determined by droplet digital PCR (ddPCR) two days after electroporation for each cell population (i.e., mock, 1+D, and 5+D).
Dual gRNAs (HPFH5-1 and HPFH-D, or HPFH5-5 and HPFH-D), as well as Cas9 protein, were also titrated in CD34+ hHSPCs. […]
The deletion frequency was determined by droplet digital PCR (ddPCR) two days after electroporation for each of the cells electroporated with HPFH5-1+HPFH5-D gRNAs, or cells electroporated with HPFH5-5+HPFH5-D gRNAs.

HPFH5 [2] = assay: Colony forming assay (CFU), clonal editing analysed by ddPCR
Procedure: The effects of Nu7441 on CRISPR-Cas9 gene editing using the dual gRNA approach (HPFH5-1 and HPFH5-D) was measured using a colony forming assay (CFU). CFU assay is an in vitro cellular assay that measures the proliferation and differentiation potential of human HSPCs. Following electroporation with dual gRNAs/Cas9 and treatment with Nu7441 (2.5 μM), CD34+ hHSPCs were diluted and plated in suspension in the presence of methylcellulose to promote stem cell differentiation. After 14 days, colonies grown from single erythroid-lineage HSPCs were analyzed for gene editing by ddPCR (Table 3).

HPFH5 [3] = assay: Tracking of Indels by Decomposition (TIDE), single gRNA indel and MMEJ species
Procedure: Tracking of Indels by Decomposition (TIDE) was utilized to determine if treatment with Nu7441 results in increased single gRNA indels as a result of NHEJ inhibition. This technology precisely determines the spectrum and frequency of indels and MMEJ species generated by single HPFH5-1 gRNA or HPFH5-D gRNAs in the presence of Nu7441 by comparing the results of standard PCR reactions and Sanger sequencing reactions. Cells were electroporated with 1.5 μg Cas and 1.5 μg HPFH5-D or 1.5 μg HPFH5-1 or no gRNA. Cells were treated with 0, 0.625 μM, 1.25 μM, 2.5 μM, or 5 μM Nu7441.

CD34+ hHSPCs [4] = assay: Cell viability by Trypan blue
Procedure: Cell viability was also assessed using Trypan blue, a standard method for detecting hematopoietic stem cell viability.

CD34+ hHSPCs [5] = assay: Cell proliferation (fold growth) by hemocytometer counting
Procedure: Cell proliferation was also assessed using a cell counting device (hemocytometer).

HPFH5 [6] = assay: Single gRNA and Cas9 titration, single guide editing percentage in CD34+ hHSPCs; conditions: 48 hour post-electroporation
Excerpt: Single HPFH5-1, HPFH5-5 and HPFH5-D gRNAs, as well as Cas9 protein, were titrated in CD34+ hHSPCs to determine the effects on deletion efficiency.

[7] = HPFH5-1 + HPFH5-D gRNAs/Cas9 + 2.5 μM Nu7441
[8] = HPFH5-1 + HPFH5-D gRNAs/Cas9 + 2.5 μM Nu7441, colonies after 14 days

COc1ccc([C@@H](O)c2cc(-c3ncnc4cc(N5CCOCC5)ccc34)c(F)cc2Cl)nn1 [M3814, (S)-(2-chloro-4-fluoro-5-(7-morpholinoquinazolin-4-yl)phenyl)(6-methoxypyridazin-3-yl)methanol]
percentage of deletions in CCR5 (CCR5 gene; four concentrations from 0.078 μM to 0.625 μM, TB74+TB25 or TB48+TB25 gRNAs, 48 hours post electroporation): increased in a dose-dependent manner
percentage increase in deletions in CCR5 compared with Nu7441 (CCR5 gene; highest concentration (0.625 μM)): about the same percentage increase in deletions as Nu7441

O=c1cc(N2CCOCC2)oc2c(-c3cccc4c3sc3ccccc34)cccc12 [Nu7441, 8-(4-dibenzothienyl)-2-(4-morpholinyl)-4H-1-benzopyran-4-one]
frequency of deletion in CCR5 (CCR5 gene; TB48 + TB7 gRNAs (735 bp deletion), 0, 1.25, 2.5, 5 μM, two days after electroporation): increased the frequency of deletion in CCR5 in a dose-dependent manner
increase of percent of deletions in CCR5 (CCR5 gene; TB48 + TB7 gRNAs, highest dose (5 μM)): more than two-fold
increase of the percent of deletions in CCR5 (CCR5 gene; TB74 + TB25 (5700 bp) and TB48 + TB25 (2672 bp) gRNAs, 0.75 or 1.5 μg each, 2.5 or 5 μM, all conditions): 20-70%
HPFH5 deletion efficiency reached with Nu7441 (HPFH5 [1]): 45% and 40%
increase of percentage of HPFH5 heterozygotes relative to untreated cells (HPFH5 [2]; 2.5 μM Nu7441): 3 fold
% Alleles edited from clones (HPFH5 [2]; [7]): 40%
% Edited cells (HPFH5 [2]; [7]): 63%
Bulk editing from ddPCR (HPFH5 [2]; [7]): 43%
% Heterozygotes (HPFH5 [2]; [8]): 46.2%
% Homozygotes (HPFH5 [2]; [8]): 17.3%
% WT (HPFH5 [2]; [8]): 36.5%
# Edited alleles (HPFH5 [2]; HPFH5-1 + HPFH5-D gRNAs/Cas9 + 2.5 μM Nu7441, of 104 total alleles (52 clones)): 42
increase of number of alleles edited from clones (HPFH5 [2]; in the presence of Nu7441 (2.5 μM)): 2 fold
potential microhomology-mediated end joining (MMEJ) species (HPFH5 [3]; Cas9 and HPFH5 gRNA): increased
effect on single guide editing (indel frequency) (HPFH5 [3]; HPFH5-1 gRNA 1.5 μg + Cas9 1.5 μg, 0.625-5 μM): not major effects
effect on indel frequency (HPFH5 [3]; HPFH5-D gRNA 1.5 μg + Cas9 1.5 μg, higher concentrations): increased indel frequency
number of wild-type sequences in HPFH5 relative to untreated cells (HPFH5 [3]; HPFH5-D gRNA, 5 μM): decrease
percentage of 10-15 base pair deletions relative to untreated cells (HPFH5 [3]; HPFH5-D gRNA, 5 μM): increase
cell viability (CD34+ hHSPCs [4]; CCR5 editing with TB48 + TB7 gRNAs, highest concentration (5 μM)): decreased slightly
cell viability (CD34+ hHSPCs [4]; concentrations of less than 5 μM, 48 hours post electroporation, HPFH5 dual gRNAs): did not adversely affect cell viability
cell viability (CD34+ hHSPCs [4]; highest dose 5 μM, HPFH5 dual gRNAs): slightly reduced
cell proliferation (fold growth) (CD34+ hHSPCs [5]; concentrations of less than 5 μM, 48 hours post electroporation): did not adversely affect cell proliferation
cell proliferation (CD34+ hHSPCs [5]; highest concentration (5 μM)): reduced

B1: HPFH5-D: 5′ gRNA targeting the HPFH5 locus, SEQ ID NO: 6, used with Cas9 protein (nucleic acid)
guide: CUGUUGGUUUCAGAGCAGGUGUUUUAGAGCUAGAAAUAGCAAGUUAAAAUAAGGCUAGUCCGUUAUCAACUUGAAAAAGUGGCACCGAGUCGGUGCUUUU
modifications: listed as RNA, chemistry not given here
% Single Guide Editing (HPFH5 [6]; gRNA 1 μg, Cas9 1 μg): 20.8%
% Single Guide Editing (HPFH5 [6]; gRNA 2 μg, Cas9 2 μg): 61.4%
% Single Guide Editing (HPFH5 [6]; gRNA 3 μg, Cas9 3 μg): 70.9%
% Single Guide Editing (HPFH5 [6]; gRNA 4 μg, Cas9 4 μg): 80.4%

B2: HPFH5-5: 3′ gRNA targeting the HPFH5 locus, SEQ ID NO: 4, used with Cas9 protein (nucleic acid)
guide: CUCCCCCACUCACAGUGACCGUUUUAGAGCUAGAAAUAGCAAGUUAAAAUAAGGCUAGUCCGUUAUCAACUUGAAAAAGUGGCACCGAGUCGGUGCUUUU
modifications: listed as RNA, chemistry not given here
% Single Guide Editing (HPFH5 [6]; gRNA 1 μg, Cas9 1 μg): 40.5%
% Single Guide Editing (HPFH5 [6]; gRNA 2 μg, Cas9 2 μg): 56.5%
% Single Guide Editing (HPFH5 [6]; gRNA 3 μg, Cas9 3 μg): 60.3%
% Single Guide Editing (HPFH5 [6]; gRNA 4 μg, Cas9 4 μg): 66.3%

B3: HPFH5-1: 3′ gRNA targeting the HPFH5 locus, SEQ ID NO: 2, used with Cas9 protein (nucleic acid)
guide: AUUUUUCUUAUUCAAUACCUGUUUUAGAGCUAGAAAUAGCAAGUUAAAAUAAGGCUAGUCCGUUAUCAACUUGAAAAAGUGGCACCGAGUCGGUGCUUUU
modifications: listed as RNA, chemistry not given here
% Single Guide Editing (HPFH5 [6]; gRNA 1 μg, Cas9 1 μg): 35.6%
% Single Guide Editing (HPFH5 [6]; gRNA 2 μg, Cas9 2 μg): 62.9%
% Single Guide Editing (HPFH5 [6]; gRNA 3 μg, Cas9 3 μg): 72.1%
% Single Guide Editing (HPFH5 [6]; gRNA 4 μg, Cas9 4 μg): 75.7%
